{"source": "patent US4629723A", "about": "“Potent thymopentin analogs” (Ortho Pharmaceutical Corporation, priority 1984, dated 1986)", "key": {"[1]": {"system": "isolated thymopoietin cell surface receptor protein from CEM cells", "details": "for Displacement of 125I-TP relative to that caused by thymopoietin self-displacement: at equivalent concentrations, 2.3×10^-10 M 125I-TP, 4 μg receptor protein, with TP 37-45 nonapeptide, 12 h; for Displacement of 125I-TP, in words: comparison peptides, competition experiments"}, "intact CEM cell": {"system": "intact CEM cell", "assay": "Cyclic-GMP assay", "format": "cell-based, human", "details": "for Result on the cyclic-GMP assay in words: in comparison with thymopentin; for Concentration of c-GMP Produced: CEM cells, 4-5 min, 37° C.", "description": "This biological activity is evidenced by an assay measuring induction of cyclic-GMP production in a human T-cell line in comparison with thymopoietin. The induction of c-GMP production by a test peptide in this assay indicates the ability of the test peptide to bind to the thymopoietin receptor site on the cell and induce thymopoietin-like biological activity. […] Because of the expense of preparing peptides and the rapid degradation of peptides often observed in living systems, peptides such as those herein which have increased potency are greatly prized.\nThis assay measures the ability of the test peptide to bind to the cell membrane receptor of the intact CEM cell and selectively stimulate production of cyclic-GMP, as does thymopoietin itself.\nThe CEM cell line was obtained from the American Type Culture Collection and was cultured in RPMI-1640 medium supplemented with 10% heat-inactivated fetal bovine serum, 10% heat-inactivated horse serum, 2 mM L-glutamine, and 50 µg/ml gentamycin at 37° C. in a humid atmosphere containing 5 percent CO2, to a final density of 3-4×10^6 cells/ml. At this concentration, the cells were in the early stationary phase of the growth curve and were judged greater than 90% viable by trypan blue exclusion. The cells were grown for four days and harvested. After harvesting, the cells were washed three times in PBS and were resuspended in RPMI-1640 medium at a concentration of 3.12×10^7 cells/ml. After the cells had been allowed to equilibrate at 37° C. for 30 min, various concentrations of the test peptides were added in a volume of 25 μl of medium to 1 ml of cells, the initial concentration of test compound added being selected to yield the desired final concentration of test peptide in the medium. The test peptide was mixed instantly with the cell suspension. The incubation was allowed to proceed in a shaking water bath at 37° C. for 4-5 min and was then terminated by addition of ice-cold trichloroacetic acid (10%; 1 ml).\nThe cells in TCA were then homogenized and sonicated to release cyclic nucleotide. The resulting suspension was centrifuged at 3000 g for 20 min at 4° C. and the resulting precipitate was dissolved in 0.1N NaOH and sonicated for a further 30 minutes, after which the protein content was determined by the method of Cadman, et al., Anal. Biochem., 96, 21-23 (1979). The TCA was removed from the supernatant fraction by extracting four times with 5 ml of water-saturated diethyl ether. After the final extraction, the remaining traces of ether were removed from the supernatant fraction by heating it for 10 min in a 50° C. water bath. After lyophilization of the extracted supernatant fraction, it was reconstituted in 50 mM acetate buffer, ph 6.2, for radioimmunoassay of cyclic nucleotide using the assay kit NEX-133, New England Nuclear, Boston, MA 02113.\nA conventional competition radioimmunoassay against radio labelled cyclic GMP was conducted to determine the amount of cyclic GMP induced by each concentration of test peptide. Results are shown in FIG. 1 and in the following table, in which representative subject peptides have been assayed in comparison with thymopentin (designated \"TP-5\") and a \"nonsense\" peptide H-ASP-ARG-TYR-LYS-VAL-OH."}, "[2]": {"details": "Concentration of Peptide 10^0 μg/ml"}, "[3]": {"details": "Concentration of Peptide 10^1 μg/ml"}, "[4]": {"details": "Concentration of Peptide 10^3 μg/ml"}, "[5]": {"details": "Concentration of Peptide 10^4 μg/ml"}}, "note": "Non-standard residues stand in square brackets, D forms with d. Residues, ends and D or L forms follow the SMILES beside them. No end group written: not given here. Aib = CC(C)(N)C(=O)O", "data": [{"molecule": "CC(C)[C@H](NC(=O)[C@H](CC(=O)O)NC(=O)[C@H](CCCCN)NC(=O)[C@@H](N)CCCNC(=N)N)C(=O)N[C@@H](Cc1c[nH]c2ccccc12)C(N)=O", "note": "[H-ARG-LYS-ASP-VAL-TRP-NH2, Arginyl-Lysyl-Aspartyl-Valyl-Tryptophan amide] (H-RKDVW-NH2)", "values": [{"measurement": "Displacement of 125I-TP relative to that caused by thymopoietin self-displacement", "setting": "[1]", "value": "at least 50%"}, {"measurement": "Result on the cyclic-GMP assay in words", "setting": "intact CEM cell", "value": "superior results"}]}, {"molecule": "CC(C)[C@H](NC(=O)[C@H](CC(=O)O)NC(=O)[C@H](CCCCN)NC(=O)[C@@H](N)CCCNC(=N)N)C(=O)N[C@@H](Cc1c[nH]c2ccccc12)C(=O)O", "note": "[H-ARG-LYS-ASP-VAL-TRP-OH, Arginyl-Lysyl-Aspartyl-Valyl-Tryptophan] (H-RKDVW-OH)", "values": [{"measurement": "Displacement of 125I-TP relative to that caused by thymopoietin self-displacement", "setting": "[1]", "value": "at least 50%"}, {"measurement": "Result on the cyclic-GMP assay in words", "setting": "intact CEM cell", "value": "superior results"}]}, {"molecule": "CC(=O)N[C@@H](CCCNC(=N)N)C(=O)NC(C)(C)C(=O)N[C@@H](CC(=O)O)C(=O)N[C@H](C(=O)N[C@@H](Cc1ccccc1)C(N)=O)C(C)C", "note": "[N-α-acetyl-ARG-AIB-ASP-VAL-PHE-NH2, Acetyl-Arginyl-α-Aminoisobutyryl-Aspartyl-Valyl-Phenylalaminamide] (Ac-R[Aib]DVF-NH2)", "values": [{"measurement": "Result on the cyclic-GMP assay in words", "setting": "intact CEM cell", "value": "superior results"}]}, {"molecule": "CC(C)[C@H](NC(=O)[C@H](CC(=O)O)NC(=O)[C@H](CCCCN)NC(=O)[C@@H](N)CCCNC(=N)N)C(=O)N[C@@H](Cc1c[nH]cn1)C(=O)O", "note": "[H-ARG-LYS-ASP-VAL-HIS-OH, Arginyl-Lysyl-Aspartyl-Valyl-Histidine] (H-RKDVH-OH)", "values": [{"measurement": "Displacement of 125I-TP relative to that caused by thymopoietin self-displacement", "setting": "[1]", "value": "at least 50%"}, {"measurement": "Concentration of c-GMP Produced", "setting": "intact CEM cell; [2]", "value": 0, "unit": "picomoles/ml"}, {"measurement": "Concentration of c-GMP Produced", "setting": "intact CEM cell; [3]", "value": 9, "unit": "picomoles/ml"}]}, {"molecule": "CC(C)[C@H](NC(=O)[C@H](CC(=O)O)NC(=O)[C@@H]1CCCN1C(=O)[C@@H](N)CCCNC(=N)N)C(=O)N[C@@H](Cc1ccccc1)C(=O)O", "note": "[H--ARG--PRO--ASP--VAL--PHE--OH, Arginyl-Prolyl-Aspartyl-Valyl-Phenylalanine] (H-RPDVF-OH)", "values": [{"measurement": "Displacement of 125I-TP relative to that caused by thymopoietin self-displacement", "setting": "[1]", "value": "at least 50%"}, {"measurement": "Concentration of c-GMP Produced", "setting": "intact CEM cell; [2]", "value": 0, "unit": "picomoles/ml"}, {"measurement": "Concentration of c-GMP Produced", "setting": "intact CEM cell; [3]", "value": 12, "unit": "picomoles/ml"}]}, {"molecule": "CC(=O)N[C@@H](CCCNC(=N)N)C(=O)N1CCC[C@H]1C(=O)N[C@@H](CC(=O)O)C(=O)N[C@H](C(=O)N[C@@H](Cc1ccccc1)C(=O)O)C(C)C", "note": "[N-α-acetyl-ARG-PRO-ASP-VAL-PHE-OH, N^α -Acetyl-Arginyl-Prolyl-Aspartyl-Valyl-Phenylaline] (Ac-RPDVF-OH)", "values": [{"measurement": "Concentration of c-GMP Produced", "setting": "intact CEM cell; [2]", "value": 7, "unit": "picomoles/ml"}, {"measurement": "Concentration of c-GMP Produced", "setting": "intact CEM cell; [3]", "value": 15, "unit": "picomoles/ml"}]}, {"molecule": "adrenocorticotropic hormone (SYSMEHFRWGKPVGKKRRPVKVYPNGAEDESAEAFPLEF; Corticotropin; UniProt P01189 138-176, looked up) [ACTH]", "values": [{"measurement": "Displacement of 125I-TP, in words", "setting": "[1]", "value": "no detectable displacement"}]}, {"molecule": "CC(=O)N[C@@H](CCCNC(=N)N)C(=O)N1CCC[C@H]1C(=O)N[C@@H](CC(=O)O)C(=O)N[C@H](C(=O)N[C@@H](Cc1ccccc1)C(N)=O)C(C)C", "note": "[N-α-acetyl-ARG-PRO-ASP-VAL-PHE-NH2, Acetyl-Arginyl-Prolyl-Aspartyl-Valyl-Phenylalanine-amide] (Ac-RPDVF-NH2)", "values": [{"measurement": "Result on the cyclic-GMP assay in words", "setting": "intact CEM cell", "value": "superior results"}]}, {"molecule": "corticotropin-releasing factor (SEEPPISLDLTFHLLREVLEMARAEQLAQQAHSNRKLMEII; ends and bridges not checked; UniProt P06850 154-194, looked up) [CRF]", "values": [{"measurement": "Displacement of 125I-TP, in words", "setting": "[1]", "value": "no detectable displacement"}]}, {"molecule": "ubiquitin", "values": [{"measurement": "Displacement of 125I-TP, in words", "setting": "[1]", "value": "no detectable displacement"}]}, {"molecule": "C[C@H](N)C(=O)NCC(=O)N[C@H]1CSSC[C@@H](C(=O)O)NC(=O)[C@H](CO)NC(=O)[C@H]([C@@H](C)O)NC(=O)[C@H](Cc2ccccc2)NC(=O)[C@H]([C@@H](C)O)NC(=O)[C@H](CCCCN)NC(=O)[C@H](Cc2c[nH]c3ccccc23)NC(=O)[C@H](Cc2ccccc2)NC(=O)[C@H](Cc2ccccc2)NC(=O)[C@H](CC(N)=O)NC(=O)[C@H](CCCCN)NC1=O", "note": "[somatostatin]", "values": [{"measurement": "Displacement of 125I-TP, in words", "setting": "[1]", "value": "no detectable displacement"}]}, {"molecule": "CC(C)[C@H](NC(=O)[C@H](CCCCN)NC(=O)[C@H](Cc1ccc(O)cc1)NC(=O)[C@H](CCCNC(=N)N)NC(=O)[C@@H](N)CC(=O)O)C(=O)O", "note": "[H--ASP--ARG--TYR--LYS--VAL--OH, H-ASP-ARG-TYR-LYS-VAL-OH, reference compound] (H-DRYKV-OH)", "values": [{"measurement": "Concentration of c-GMP Produced", "setting": "intact CEM cell; [4]", "value": 0, "unit": "picomoles/ml"}, {"measurement": "Concentration of c-GMP Produced", "setting": "intact CEM cell; [5]", "value": 0, "unit": "picomoles/ml"}, {"measurement": "Concentration of c-GMP Produced", "setting": "intact CEM cell; Concentration of Peptide 10^5 μg/ml", "value": 0, "unit": "picomoles/ml"}]}, {"molecule": "CC(C)[C@H](NC(=O)[C@H](CC(=O)O)NC(=O)[C@H](CCCCN)NC(=O)[C@@H](N)CCCNC(=N)N)C(=O)N[C@@H](Cc1ccccc1)C(=O)O", "note": "[H-ARG-LYS-ASP-VAL-PHE-OH, Arginyl-Lysyl-Aspartyl-Valyl-Phenylalanine] (H-RKDVF-OH)", "values": [{"measurement": "Displacement of 125I-TP relative to that caused by thymopoietin self-displacement", "setting": "[1]", "value": "at least 50%"}, {"measurement": "Concentration of c-GMP Produced", "setting": "intact CEM cell; [2]", "value": 6, "unit": "picomoles/ml"}, {"measurement": "Concentration of c-GMP Produced", "setting": "intact CEM cell; [3]", "value": 9, "unit": "picomoles/ml"}]}, {"molecule": "growth hormone", "values": [{"measurement": "Displacement of 125I-TP, in words", "setting": "[1]", "value": "no detectable displacement"}]}, {"molecule": "N^α -Acetyl-Arginyl-3,4-dehydro-Prolyl-Aspartyl-Valyl-Tyrosineamide", "values": [{"measurement": "Result on the cyclic-GMP assay in words", "setting": "intact CEM cell", "value": "superior results"}]}, {"molecule": "β-endorphin (YGGFMTSEKSQTPLVTLFKNAIIKNAYKKGE; Beta-endorphin; UniProt P01189 237-267, looked up)", "values": [{"measurement": "Displacement of 125I-TP, in words", "setting": "[1]", "value": "no detectable displacement"}]}, {"molecule": "CC(C)[C@H](NC(=O)[C@H](CC(=O)O)NC(=O)[C@H](CCCCN)NC(=O)[C@@H](N)CCCN=C(N)N)C(=O)N[C@@H](Cc1ccc(O)cc1)C(=O)O", "note": "[TP-5, H--ARG--LYS--ASP--VAL--TYR--OH, reference compound] (H-RKDVY-OH)", "values": [{"measurement": "Concentration of c-GMP Produced", "setting": "intact CEM cell; [2]", "value": 0, "unit": "picomoles/ml"}, {"measurement": "Concentration of c-GMP Produced", "setting": "intact CEM cell; [3]", "value": 4.5, "unit": "picomoles/ml"}, {"measurement": "Concentration of c-GMP Produced", "setting": "intact CEM cell; Concentration of Peptide 10^2 μg/ml", "value": 9, "unit": "picomoles/ml"}, {"measurement": "Concentration of c-GMP Produced", "setting": "intact CEM cell; [4]", "value": 12, "unit": "picomoles/ml"}, {"measurement": "Concentration of c-GMP Produced", "setting": "intact CEM cell; [5]", "value": 14, "unit": "picomoles/ml"}]}, {"molecule": "facteur thymique serique [FTS]", "values": [{"measurement": "Displacement of 125I-TP, in words", "setting": "[1]", "value": "no detectable displacement"}]}]}
